21 compounds from US11008314B2, “Compounds and methods for modulating interleukin-2-inducible t-cell kinase” (CORVUS PHARMACEUTICALS, INC., priority 2016, dated 2021) can be followed below.

What all share (assay type): biochemical
One experiment addresses ITK (Homo sapiens (Human), UniProt Q08881). Briefly: IC50 against ITK.
A further experiment deals with TXK (Homo sapiens (Human), UniProt P42681). Briefly: IC50 against TXK. The following applies: for TXK/ITK: ratio of TXK IC50 to ITK IC50.
Another experiment has as its target JAK3 (Homo sapiens (Human), UniProt P52333). Description: IC50 against JAK3.
A further experiment addresses BTK (Homo sapiens (Human), UniProt Q06187). Description: IC50 against BTK.

Sequence of JAK3 (P52333 whole entry, species assumed): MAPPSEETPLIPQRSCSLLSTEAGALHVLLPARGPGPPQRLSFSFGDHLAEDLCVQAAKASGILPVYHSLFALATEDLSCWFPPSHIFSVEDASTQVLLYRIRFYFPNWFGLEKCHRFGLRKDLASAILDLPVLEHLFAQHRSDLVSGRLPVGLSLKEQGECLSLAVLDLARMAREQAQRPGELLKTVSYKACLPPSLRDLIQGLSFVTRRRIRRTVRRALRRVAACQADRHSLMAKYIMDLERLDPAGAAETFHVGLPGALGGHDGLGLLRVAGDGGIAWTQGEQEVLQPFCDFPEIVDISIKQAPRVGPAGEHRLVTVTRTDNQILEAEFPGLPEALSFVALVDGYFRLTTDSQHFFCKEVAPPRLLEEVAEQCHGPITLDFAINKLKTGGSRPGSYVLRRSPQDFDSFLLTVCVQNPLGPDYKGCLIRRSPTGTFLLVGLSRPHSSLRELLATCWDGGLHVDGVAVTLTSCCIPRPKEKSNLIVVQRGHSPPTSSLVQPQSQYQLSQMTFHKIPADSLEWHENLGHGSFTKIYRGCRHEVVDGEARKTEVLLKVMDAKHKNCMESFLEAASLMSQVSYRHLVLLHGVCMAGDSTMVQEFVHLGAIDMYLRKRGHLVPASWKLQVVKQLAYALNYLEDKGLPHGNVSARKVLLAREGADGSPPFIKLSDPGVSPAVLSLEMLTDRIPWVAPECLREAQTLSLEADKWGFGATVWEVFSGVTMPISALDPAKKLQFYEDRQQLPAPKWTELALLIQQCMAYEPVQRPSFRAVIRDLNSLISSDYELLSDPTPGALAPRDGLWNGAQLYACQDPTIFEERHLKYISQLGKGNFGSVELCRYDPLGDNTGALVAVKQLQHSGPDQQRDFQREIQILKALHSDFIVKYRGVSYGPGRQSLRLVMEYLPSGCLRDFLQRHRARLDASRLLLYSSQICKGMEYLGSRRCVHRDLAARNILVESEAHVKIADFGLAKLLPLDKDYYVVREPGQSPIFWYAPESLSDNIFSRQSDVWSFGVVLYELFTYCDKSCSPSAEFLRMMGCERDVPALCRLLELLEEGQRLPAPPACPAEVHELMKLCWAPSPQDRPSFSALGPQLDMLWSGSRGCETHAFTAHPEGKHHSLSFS
Sequence of ITK (Q08881 whole entry): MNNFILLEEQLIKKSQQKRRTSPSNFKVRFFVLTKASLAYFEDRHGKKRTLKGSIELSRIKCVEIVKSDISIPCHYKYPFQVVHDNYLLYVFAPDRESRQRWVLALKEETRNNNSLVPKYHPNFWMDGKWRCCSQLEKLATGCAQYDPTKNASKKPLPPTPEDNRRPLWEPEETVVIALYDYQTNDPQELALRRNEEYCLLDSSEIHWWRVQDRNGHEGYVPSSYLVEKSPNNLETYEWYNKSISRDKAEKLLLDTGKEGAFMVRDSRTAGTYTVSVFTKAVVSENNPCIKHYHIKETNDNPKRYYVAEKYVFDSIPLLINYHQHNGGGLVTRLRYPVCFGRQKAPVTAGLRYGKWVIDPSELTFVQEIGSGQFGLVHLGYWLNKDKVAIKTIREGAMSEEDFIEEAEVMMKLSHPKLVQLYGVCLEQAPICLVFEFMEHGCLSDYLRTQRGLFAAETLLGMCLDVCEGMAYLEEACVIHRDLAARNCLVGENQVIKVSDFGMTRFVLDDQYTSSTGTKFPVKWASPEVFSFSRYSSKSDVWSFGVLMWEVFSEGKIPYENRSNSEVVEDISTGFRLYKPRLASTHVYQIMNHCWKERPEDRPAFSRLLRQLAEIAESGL
Sequence of TXK (P42681 whole entry, species assumed): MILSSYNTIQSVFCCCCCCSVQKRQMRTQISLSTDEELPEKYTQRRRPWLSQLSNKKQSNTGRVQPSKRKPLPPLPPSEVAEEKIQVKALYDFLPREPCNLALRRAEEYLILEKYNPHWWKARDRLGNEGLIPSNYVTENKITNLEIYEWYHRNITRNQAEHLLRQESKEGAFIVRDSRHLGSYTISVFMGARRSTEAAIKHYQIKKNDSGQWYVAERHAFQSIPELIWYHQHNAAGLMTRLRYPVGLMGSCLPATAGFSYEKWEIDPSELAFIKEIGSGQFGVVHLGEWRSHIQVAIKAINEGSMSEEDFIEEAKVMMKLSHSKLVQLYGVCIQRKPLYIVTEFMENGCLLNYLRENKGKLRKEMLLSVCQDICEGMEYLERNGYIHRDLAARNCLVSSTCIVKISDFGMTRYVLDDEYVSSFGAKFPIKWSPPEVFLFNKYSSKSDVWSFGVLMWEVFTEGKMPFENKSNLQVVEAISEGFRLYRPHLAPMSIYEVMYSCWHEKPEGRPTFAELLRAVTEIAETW
Sequence of BTK (Q06187 whole entry, species assumed): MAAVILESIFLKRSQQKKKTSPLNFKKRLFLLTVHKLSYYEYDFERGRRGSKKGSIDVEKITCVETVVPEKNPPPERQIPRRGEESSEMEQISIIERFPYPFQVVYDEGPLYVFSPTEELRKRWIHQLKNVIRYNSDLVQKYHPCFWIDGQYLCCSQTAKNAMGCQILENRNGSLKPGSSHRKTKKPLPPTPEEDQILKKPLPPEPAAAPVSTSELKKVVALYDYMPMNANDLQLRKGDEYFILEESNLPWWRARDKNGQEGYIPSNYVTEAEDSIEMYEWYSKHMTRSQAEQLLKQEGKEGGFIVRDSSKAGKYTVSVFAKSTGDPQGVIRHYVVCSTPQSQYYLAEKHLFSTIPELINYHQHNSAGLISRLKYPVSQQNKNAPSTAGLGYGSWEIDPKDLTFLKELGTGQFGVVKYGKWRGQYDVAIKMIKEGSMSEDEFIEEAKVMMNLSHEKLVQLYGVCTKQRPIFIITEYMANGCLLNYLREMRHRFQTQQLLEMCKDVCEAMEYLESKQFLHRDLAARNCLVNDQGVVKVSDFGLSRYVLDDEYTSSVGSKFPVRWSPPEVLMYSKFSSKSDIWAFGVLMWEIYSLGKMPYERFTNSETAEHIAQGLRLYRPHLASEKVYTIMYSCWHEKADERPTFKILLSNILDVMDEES

Regarding `C=CC(=O)N1CCN(C(=O)c2cc(Sc3cnc(NC(=O)C4CC4)s3)c(C)cn2)CC1` [Compound 76], the 50% inhibitory concentration (IC50) against ITK, at TXK, at JAK3 and on BTK was at least 10000 nM in each case. Besides, at TXK, the TXK/ITK stood at 1.

On to `C=CC(=O)N1CCCN(C(=O)c2cc(Sc3cnc(NC(=O)C4CC4)s3)c(C)cc2CC)C[C@H]1C` [Compound 105], for which the IC50 is below 10 nM at ITK, 100 to 1000 nM against TXK, 1000 to 10000 nM on JAK3 and 100 to 1000 nM against BTK. Moreover, the TXK/ITK on TXK is listed as 12.3.

Take `C=CC(=O)N1CCN(C(=O)c2cc(Sc3cnc(Nc4ccccn4)s3)c(C)cc2C)CC1` [Compound 133]: the IC50 on ITK is below 10 nM; at TXK, below 10 nM; on JAK3, 10 to 100 nM; at BTK it was 10 to 100 nM. On TXK, the TXK/ITK was 4.6.

On to `C=CC(=O)N1CC[C@H](N(C)C(=O)c2cc(Sc3cnc(NC(=O)C4CC4)s3)c(C)cc2OC)C1` [Compound 29], for which the IC50 against ITK was below 10 nM; on TXK, below 10 nM; at JAK3, 100 to 1000 nM; on BTK, 100 to 1000 nM. Besides, the TXK/ITK at TXK was determined as 2.1804.

On to `C=CC(=O)N1CCN(C(=O)c2cc(Sc3cnc(NC(C)=O)s3)c(C)cc2OC)CC1` [Compound 2], for which the concentration for half-maximal inhibition (IC50) was below 10 nM against ITK, 100 to 1000 nM at TXK, 100 to 1000 nM at JAK3 and 100 to 1000 nM against BTK. The TXK/ITK at TXK is 19.869.

As to `C=CC(=O)N1CCCN(C(=O)c2cc(Sc3cnc(NC(=O)C4CC4)s3)c(C)cc2F)C[C@H]1C` [Compound 60], the IC50 at ITK is 10 to 100 nM; against TXK it was 1000 to 10000 nM; at JAK3, at least 10000 nM; against BTK, at least 10000 nM. Besides, on TXK, the TXK/ITK was determined as 21.785.

`C=CC(=O)N1CCCN(C(=O)c2cc(Sc3cnc(NC(=O)C4CC4)s3)c(C)cc2C(F)(F)F)C[C@H]1C` [Compound 70]: the IC50 at ITK was 10 to 100 nM; against TXK, 1000 to 10000 nM; on JAK3 it was at least 10000 nM; against BTK it was at least 10000 nM. Moreover, on TXK, the TXK/ITK is reported as 35.68.

As to `C=CC(=O)N1CCN(C(=O)c2cc(Sc3cnc(NC(=O)c4ccsc4)s3)c(C)cc2OC)C[C@H]1C#N` [Compound 156, (S)-N-(5-((5-(4-acryloyl-3-cyanopiperazine-1-carbonyl)-4-methoxy-2-methylphenyl)thio)thiazol-2-yl)thiophene-3-carboxamide], the half-inhibitory concentration (IC50) against ITK, at TXK, against JAK3 and on BTK was below 10 nM in each case. Moreover, the TXK/ITK at TXK worked out at 3.09.

Turning to `C=CC(=O)N1CCN(C(=O)c2cc(Sc3cnc(NC4CC4)s3)c(C)cc2OC)CC1` [Compound 67], the concentration for half-maximal inhibition (IC50) on ITK was at least 10000 nM; at TXK, 1000 to 10000 nM; against JAK3 it was 1000 to 10000 nM; on BTK it was at least 10000 nM. In addition, on TXK, the TXK/ITK was 0.634.

For the compound `C=CC(=O)N1C[C@H]2CC[C@@H](C1)N2C(=O)c1cc(Sc2cnc(NC(=O)c3ccsc3)s2)c(C)cc1OC` [Compound 143, N-(5-((5-((1R,5S)-3-acryloyl-3,8-diazabicyclo[3.2.1]octane-8-carbonyl)-4-methoxy-2-methylphenyl)thio)thiazol-2-yl)thiophene-3-carboxamide], the IC50 at ITK is below 10 nM; against TXK it was below 10 nM; on JAK3, 10 to 100 nM; against BTK, below 10 nM. The TXK/ITK at TXK was 3.51.

`C=CC(=O)N1CCN(C(=O)c2cc(Sc3cnc(NC(=O)c4cnn(CCN(C)C)c4)s3)c(C)cc2OC)C[C@H]1CC` [Compound 116]: the half-maximal inhibitory concentration (IC50) on ITK is below 10 nM; against TXK, 10 to 100 nM; at JAK3 it was 1000 to 10000 nM; against BTK, 100 to 1000 nM. For the same compound, the TXK/ITK on TXK turned out to be 23.3.

Regarding `C=CC(=O)N1CCN(C(=O)c2cc(Sc3cnc(NC(=O)c4cnsc4)s3)c(C)cc2OC)CC1` [Compound 85], the IC50 against ITK is below 10 nM; against TXK, 10 to 100 nM; on JAK3 it was 100 to 1000 nM; at BTK it was 100 to 1000 nM. On TXK, the TXK/ITK stood at 33.582.

Turning to `C=CC(=O)N1CCCN(C(=O)c2cc(Sc3cnc(Nc4ccccn4)s3)c(C)cc2OC)C[C@H]1C` [Compound 103], the IC50 against ITK was below 10 nM; against TXK it was 10 to 100 nM; against JAK3, 100 to 1000 nM; at BTK, 100 to 1000 nM. In addition, the TXK/ITK on TXK amounted to 47.6.

Regarding `C=CC(=O)N1CCCN(C(=O)c2cc(Sc3cnc(NC(=O)c4ccsc4)s3)c(C)cc2C)C[C@H]1CC` [Compound 122], the IC50 at ITK was below 10 nM; at TXK, 100 to 1000 nM; against JAK3 it was 100 to 1000 nM; at BTK, 100 to 1000 nM. For the same compound, the TXK/ITK on TXK is 118.5.

As to `C=CC(=O)N1CCN(C(=O)c2cc(Sc3cnc(Nc4ccc(CN(C)C)cn4)s3)c(C)cc2OC)CC1` [Compound 134], the IC50 against ITK was below 10 nM; on TXK it was below 10 nM; against JAK3 it was 10 to 100 nM; against BTK, below 10 nM.

`C=CC(=O)N1[C@@H]2CC[C@H]1CN(C(=O)c1cc(Sc3cnc(NC(=O)c4ccsc4)s3)c(C)cc1OC)C2` [Compound 155, N-(5-((5-((1R, 5S)-8-acryloyl-3,8-diazabicyclo[3.2.1]octane-3-carbonyl)-4-methoxy-2-methylphenyl)thio)thiazol-2-yl)thiophene-3-carboxamide]: the half-maximal inhibitory concentration (IC50) is below 10 nM against ITK, below 10 nM against TXK, 10 to 100 nM against JAK3 and below 10 nM against BTK. The TXK/ITK at TXK came to 2.73.

With `C=CC(=O)N1[C@@H]2CC[C@H]1CN(C(=O)c1cc(Sc3cnc(NC(C)=O)s3)c(C)cc1OC)C2` [Compound 8], the 50% inhibitory concentration (IC50) is below 10 nM against ITK, 10 to 100 nM at TXK, 100 to 1000 nM against JAK3 and 10 to 100 nM on BTK. The TXK/ITK at TXK is 11.265.

Regarding `C=CC(=O)N1CCN(C(=O)c2cc(Sc3cnc(NC(=O)c4ccsc4)s3)c(C)cc2OC)C[C@H]1CC` [Compound 113], the concentration for half-maximal inhibition (IC50) is below 10 nM at ITK, 10 to 100 nM against TXK, 100 to 1000 nM at JAK3 and 10 to 100 nM against BTK. Moreover, at TXK, the TXK/ITK is 12.1.

For the compound `C=CC(=O)N1CCN(C(=O)c2cc(Sc3cnc(NC(=O)C4CC4)s3)c(Cl)cc2C)C[C@H]1CC` [Compound 101], the IC50 against ITK is 10 to 100 nM; against TXK it was 100 to 1000 nM; against JAK3 it was 100 to 1000 nM; against BTK, at least 10000 nM. Also, the TXK/ITK on TXK is recorded as 14.4.

Consider `C=CC(=O)N1CC[C@@H](N(C)C(=O)c2cc(Sc3cnc(NC(=O)c4ccsc4)s3)c(C)cc2OC)C1` [Compound 146, (R)-N-(5-((5-((1-acryloylpyrrolidin-3-yl)(methyl)carbamoyl)-4-methoxy-2-methylphenyl)thio)thiazol-2-yl)thiophene-3-carboxamide], for which the IC50 on ITK, against TXK, on JAK3 and against BTK was below 10 nM each time. The TXK/ITK at TXK came out at 3.19.

Take `C=CC(=O)N1CCN(C(=O)c2cc(Sc3cnc(NC(=O)C4CC4)s3)c(C)cc2OC)CC(F)C1` (centres unmarked) [Compound 55]: the IC50 was below 10 nM against ITK, below 10 nM at TXK, 10 to 100 nM on JAK3 and 10 to 100 nM against BTK. Moreover, on TXK, the TXK/ITK stood at 6.2416.

For orientation: IC50 means the point on the concentration scale where inhibition reaches its midpoint.
